Laboratory results: patent US10865435B2, “Method of screening antibacterial compounds as inhibitor of Mfd” (INSTITUT NATIONAL DE LA RECHERCHE AGRONOMIQUE, priority 2016, dated 2020)

Test system: Bacillus cereus strain Bc 407
Assay: Molecule capacity to inhibit bacterial growth in the presence of artificially produced nitric oxide (cfu plating)
Type: cell-based
Procedure: Bacteria (Bacillus cereus strain Bc 407) were grown in LB medium until mid exponential growth phase at 37° C. with shaking. Cultures were then diluted to 10^4 cfu/ml in PBS (Phosphate Buffered Saline, Sigma). The molecules to be tested (potential Mfd inhibitors) are added at a concentration of 0 to 1 mM to the bacteria and the bacteria+inhibitors are incubated at room temperature for 1 h without agitation.
Bacteria were then exposed directly to chemically generated NO+ in a cell-free system as described by Miyagi et al. (Miyagi et al., 1997) with modifications. Briefly, 10^4 bacterial cfu (+various concentrations of potential Mfd inhibitors) are incubated in RPMI-1640 medium (Invitrogen) at acidic pH (pH 5.4) either in the absence or in the presence of 1.5 mM sodium nitrite (Walco Pure Chemical Industries Ltd) at 37° C. for 1 h under shaking; under these acidic conditions, NO+ is generated from the sodium nitrite by a chemical reaction (Miyagi et al., 1997).
The bacteria are harvested and plated on agar plates to evaluate bacterial survival. The cfu obtained without nitric oxide stress gives the toxicity value whereas the cfu obtained following nitric oxide stress gives the inhibitor efficacy value. Using this cell free assay, the inhibitor concentration required to decrease by 50% the survival rate of the bacteria (IC50) in the presence of nitric oxide stress compared to untreated bacteria is calculated using the GraphPad PRISM software (version 6.0, GraphPad Software, San Diego, Calif.) with non-linear regression.

CN1CC(=O)N2[C@H](c3ccc4c(c3)OCO4)c3[nH]c4ccccc4c3C[C@@H]2C1=O [tadalafil, (6R-trans)-6-(1,3-benzodioxol-5-yl)-2,3,6,7,12,12a-hexahydro-2-methyl-pyrazino[1′,2′:1,6]pyrido[3,4-b]indole-1,4-dione]
IC50 (1.5 mM sodium nitrite, pH 5.4, 37° C., 1 h, mean of two experiments, read-out: IC50 (concentration required to decrease by 50% the survival rate of the bacteria in the presence of nitric oxide stress compared to untreated bacteria)): 98.7 µM
activity on B. cereus survival with nitric oxide (NO) stress (with NO stress, at 100 μM): activity
activity on B. cereus survival without stress (toxicity) (without nitric oxide stress, until 100 μM): weak activity
